Test results taken from patent publication US20260265216A1, “NOVEL THIOREDOXIN REDUCTASE INHIBITORS” (GENEXPLAIN GMBH, priority 2021, published 2026).

Biological target: T1, TrxR1 in HCT116 and MCF7 cells (Homo sapiens, UniProt Q16881)
T1 construct: endogenous in cells; host or cells: MCF7; HCT116
T1 sequence (Q16881 1-499 isoform Q16881-5): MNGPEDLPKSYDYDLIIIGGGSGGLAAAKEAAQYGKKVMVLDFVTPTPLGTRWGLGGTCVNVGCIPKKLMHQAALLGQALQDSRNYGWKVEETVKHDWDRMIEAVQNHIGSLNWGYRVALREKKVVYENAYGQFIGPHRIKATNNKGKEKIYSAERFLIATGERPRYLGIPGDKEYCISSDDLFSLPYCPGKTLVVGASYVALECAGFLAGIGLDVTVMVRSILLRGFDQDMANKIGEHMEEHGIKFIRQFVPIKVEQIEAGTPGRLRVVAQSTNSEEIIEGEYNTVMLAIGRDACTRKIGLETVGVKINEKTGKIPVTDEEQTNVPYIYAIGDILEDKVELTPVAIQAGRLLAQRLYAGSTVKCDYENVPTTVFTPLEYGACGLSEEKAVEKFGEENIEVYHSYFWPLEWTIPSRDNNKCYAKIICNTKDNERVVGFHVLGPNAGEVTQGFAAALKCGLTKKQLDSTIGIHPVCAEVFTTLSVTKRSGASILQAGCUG
Assay: Detection of TrxR dimers by Western blot
Assay type: cell-based
Conditions: 5 μM, detected as soon as 2 h
Experimental: The extraction of total cell lysates and western blot were performed according to standard procedure. The antibodies used for immunoblotting were: p53 (sc-126, Santa Cruz Biotechnology), γH2AX (#07-164, Millipore), TrxR1 19A1 (AbFrontier). Anti-β-actin monoclonal antibody (Millipore) was used as loading control. The horseradish peroxidase-coupled secondary antibodies (Jackson ImmunoResearch) and SuperSignal™ West Dura Extended Duration Substrate detection system (Thermo Fischer Scientific), and images were visualized using ChemiDoc Imaging System (Bio-Rad).
MCF7 or HCT116 cells were treated in culture with 5 or 10 μM of 1d*HCl (Example 4) in complete medium for 2 h or 6 h. For each case, duplicate drug treated samples were produced plus duplicate control treatment samples using equal volumes of the drug vehicle dimethyl sulfoxide. Detached cells from each biological replicate were washed, suspended in PBS containing protease inhibitors and cells lysed through freeze thaw cycles in liquid N2, according to the reference protocol. Soluble fraction was separated from precipitated protein by ultracentrifugation at 100000 g for 30 minutes at 4° C. and TrxR1 dimer formation was analysed using Western blot as described above. […]

## Cl.N#Cc1c(-c2cccnc2)[n+]([O-])c2cc(F)c(N3CCOCC3)cc2[n+]1[O-] [Compound 1d*HCl, 6-Fluoro-7-(morpholin-4-yl)-3-(pyridin-3-yl)quinoxaline-2-carbonitrile-1,4-dioxide hydrochloride]
  formation of TrxR1 covalent dimers (130 kDa band): induces the formation of TrxR1 covalent dimers
